Laboratory results published in patent US10183949B2, “Pyrimidinone derivative having autotaxin-inhibitory activity” (The University of Tokyo, priority 2014, dated 2019).

These molecules were tested against T1, Human autotaxin enzyme (Homo sapiens, UniProt Q13822) (assay: Evaluation of autotaxin inhibitor, 18:0 Lyso PC / choline assay (Test Example 2)). Conditions: autotaxin inhibition, IC50 class; read-out: Inhibitor activity.
T1 construct: purchased R&D System
Type: biochemical
Experimental: Solution B containing 100 mM Tris-HCl buffer (pH7.5), 150 mM NaCl, 5 mM MgCl2, and 0.05% Triton X-100 was prepared. Human autotaxin enzyme (purchased from R&D System) was diluted with Solution B, and 2.5 μl of which was added to a solution of test compound in DMSO. Furthermore, 2.5 μl of 200 μM 18:0 Lyso PC (purchased from Avanti Polar Lipids) in Solution B was added and allowed to react at room temperature for 2 hours. After completion of the reaction, 15 μl of the coline assay reagent. (100 mM Tris-HCl buffer (pH7.5), 5 mM. MgCl2, 77 μg/ml coline oxidase, 10 μg/ml peroxydase, 25μM 10-acetyl-3,7-dihydroxyphenoxazine, and excess autotaxin inhibitor) was added and allowed to react at room temperature for 20 minutes. The fluorescent dye Resorufin, which was produced by the reaction, was detected. The fluorescence was detected using ViewLux
(PerkinElmer, Inc.) with a excitation wavelength of 531 nm and a fluorescence wavelength of 598 nm.
The percent inhibition of the test compound was calculated by assuming the sample with no test compound as 0% inhibition and the sample with no enzyme as 100% inhibition, and the percent inhibitions at different concentrations of the test compound were plotted to obtain a concentration-dependent curve.

IC50, 100 to 1000 nM:
N#CC1(NC(=O)Cn2c(OCCC(F)(F)F)nc(-c3ccc(Cl)cc3)cc2=O)CC1 [Compound I-0242]

Same assay, conditions: human autotaxin enzyme, 18:0 Lyso PC substrate, choline assay, room temperature 2 hours; read-out: Inhibitor activity (IC50)

IC50, 10 to 100 nM:
O=C(Cn1c(CCCC(F)(F)F)nc(-c2ccc(C(F)(F)F)cc2)cc1=O)NCC1CCC(=O)N1 (stereo not shown) [Compound I-0335], COC(=O)Nc1cc(C#N)ccc1-c1cc(=O)n(CC(=O)N2CCC(O)CC2)c(C)n1 [Compound I-0418], CCCCCc1nc(-c2ccc(Cl)cc2)cc(=O)n1CC(=O)NC1(C(=O)O)CC1 [Compound I-0069], Cc1nc(-c2ccc(Cl)cc2NC(=O)C2CC2)cc(=O)n1CC(=O)NC(C)(C)CF [Compound I-0424], CCCCCc1nc(-c2ccc(Cl)cc2)cc(=O)n1CC(=O)NC(C)CC#N (stereo not shown) [Compound I-0079], COC(=O)Nc1cc(Cl)ccc1-c1cc(=O)n(CC(=O)NC2(C#N)CC2)c(C)n1 [Compound I-0403], COC(=O)c1ccc(Cn2c(CCCC(F)(F)F)nc(-c3ccc(Cl)cc3)cc2=O)o1 [Compound I-0291], O=C(O)c1cccc(Cn2c(CCCC(F)(F)F)nc(-c3ccc(Cl)cc3CO)cc2=O)c1 [Compound I-0322], COC(=O)Nc1cc(Cl)ccc1-c1cc(=O)n(CC(=O)NC2(c3nc(C)no3)CC2)c(C)n1 [Compound I-0467], CCCCCOc1nc(-c2ccc(Cl)cc2)cc(=O)n1CC(=O)NC(Cc1ccccc1)C(=O)O (stereo not shown) [Compound I-0152], O=C(Cn1c(CCCC(F)(F)F)nc(-c2ccc(C(F)(F)F)cc2)cc1=O)NC1(c2cccnc2)CC1 [Compound I-0347], COC(=O)Nc1cc(Cl)ccc1-c1cc(=O)n(CC(=O)NCC2CNC(=O)C2)c(C)n1 (stereo not shown) [Compound I-0438], O=C(Cn1c(CCCC(F)(F)F)nc(-c2ccc(Cl)cc2)cc1=O)N1CCN(CCO)CC1 [Compound I-0131], N#CC1(NC(=O)Cn2c(COCC3CC3)nc(-c3ccc(Cl)cc3)cc2=O)CC1 [Compound I-0209], O=C(Cn1c(CCCC(F)(F)F)nc(-c2ccc(C(F)(F)F)cc2)cc1=O)NCCc1nnc(-c2ccccc2)o1 [Compound I-0368], CCCCCc1nc(-c2ccc(Cl)cc2)cc(=O)n1CC(=O)N1[C@H](C)COC[C@@H]1C [Compound I-0095], Cc1nc(-c2ccc(Cl)cc2NC(=O)C2CC2)cc(=O)n1CC(=O)NC(C)(C)CO [Compound I-0422], COC(=O)Nc1cc(Cl)ccc1-c1cc(=O)n(CC(=O)NCCNS(C)(=O)=O)c(C)n1 [Compound I-0464], CCCCCc1nc(-c2ccc(Cl)cc2)cc(=O)n1CC(=O)NCC(C)(C)O [Compound I-0098], CC(O)CNC(=O)Cn1c(CCCC(F)(F)F)nc(-c2ccc(Cl)cc2)cc1=O (stereo not shown) [Compound I-0119], COC(=O)Nc1cc(Cl)ccc1-c1cc(=O)n(CC(=O)N(C(C)C)C(C)C)c(C)n1 [Compound I-0276], CC(C)(C)OC(=O)Cn1c(CCCC(F)(F)F)nc(-c2ccc(Cl)cc2F)cc1=O [Compound I-0284], COC(=O)Nc1cc(C#N)ccc1-c1cc(=O)n(CC(=O)NCC2CNC(=O)O2)c(C)n1 (stereo not shown) [Compound I-0430], CN(CC#N)C(=O)Cn1c(CCCC(F)(F)F)nc(-c2ccc(C(F)(F)F)cc2)cc1=O [Compound I-0297], O=C(O)c1cc(Cn2c(CCCC(F)(F)F)nc(-c3ccc(Cl)cc3)cc2=O)cs1 [Compound I-0292], COC(=O)Nc1cc(Cl)ccc1-c1cc(=O)n(CC(=O)N2CCN(CC(F)(F)F)CC2)c(C)n1 [Compound I-0481], CCCCCc1nc(-c2ccc(Cl)cc2)cc(=O)n1CC(=O)N1CCC(c2nc(=O)o[nH]2)CC1 [Compound I-0382], O=C(c1cccc(Cn2c(CCCC(F)(F)F)nc(-c3ccc(Cl)cc3)cc2=O)c1)N1CCC(O)CC1 [Compound I-0158], CC(O)CNC(=O)Cn1c(CCCC(F)(F)F)nc(-c2ccc(C(F)(F)F)cc2)cc1=O (stereo not shown) [Compound I-0303], CCC(CO)(CO)NC(=O)Cn1c(CCCC(F)(F)F)nc(-c2ccc(Cl)cc2)cc1=O [Compound I-0144], O=C(Cn1c(CCCC(F)(F)F)nc(-c2ccc(C(F)(F)F)cc2)cc1=O)NC1(c2ccccn2)CC1 [Compound I-0348], NC(=S)C1CCN(C(=O)Cn2c(CCCC(F)(F)F)nc(-c3ccc(C(F)(F)F)cc3)cc2=O)CC1 [Compound I-0353], COC(=O)Nc1cc(Cl)ccc1-c1cc(=O)n(Cc2cccc(C(=N)NO)c2)c(C)n1 [Compound I-0377]

IC50, < 10 nM:
COC(=O)Nc1cc(C#N)ccc1-c1cc(=O)n(Cc2cccc(-c3nc(=O)o[nH]3)c2)c(C)n1 [Compound I-0378], CC(C)(O)CNC(=O)Cn1c(CCCC(F)(F)F)nc(-c2ccc(Cl)cc2)cc1=O [Compound I-0134], COC(=O)Nc1cc(C#N)ccc1-c1cc(=O)n(CC(=O)OC(C)(C)C)c(C)n1 [Compound I-0263], COC(=O)Nc1cc(Cl)ccc1-c1cc(=O)n(CC(=O)N2CCC(c3nc(=O)o[nH]3)CC2)c(C)n1 [Compound I-0482], O=C(Cn1c(CCCC(F)(F)F)nc(-c2ccc(C(F)(F)F)cc2)cc1=O)NCc1nn[nH]n1 [Compound I-0331], N#Cc1ccc(-c2cc(=O)n(CC(=O)NC3(C#N)CC3)c(CCCC(F)(F)F)n2)c(F)c1 [Compound I-0235], COC(=O)Nc1cc(C#N)ccc1-c1cc(=O)n(CC(=O)NCc2c[nH]nn2)c(C)n1 [Compound I-0414], Cc1nc(-c2ccc(C#N)cc2NC(=O)C2CC2)cc(=O)n1Cc1cccc(C(=O)O)c1 [Compound I-0271], CCCCCc1nc(-c2ccc(Cl)cc2)cc(=O)n1CC(=O)N1CCC(CC(=O)O)CC1 [Compound I-0045]

IC50, ≥ 1000 nM:
O=C(O)Cn1c(CCCC(F)(F)F)nc(-c2ccc(Cl)cc2CO)cc1=O [Compound I-0264], CCCCCc1nc(-c2ccc(Cl)cc2)cc(=O)n1Cc1ccccc1 [Compound I-0007], Cc1nc(-c2ccc(Cl)cc2NC(=O)C2CC2)cc(=O)n1CC(=O)O [Compound I-0259], N#CC1(NC(=O)Cn2c(CCC(F)(F)F)nc(-c3ccc(Cl)cc3)cc2=O)CC1 [Compound I-0207], Cn1c(=O)cc(-c2ccc(Cl)cc2)n(CCCC#N)c1=N [Compound I-0108], N#CCNc1nc(-c2ccc(C#N)cc2)cc(=O)n1Cc1ccccc1 [Compound I-0106], Cc1nc(-c2ccc(C#N)cc2NC(=O)C2CC2)cc(=O)n1CC(=O)O [Compound I-0258]

IC50, 100 to 1000 nM:
CCCCCc1nc(-c2ccc(Cl)cc2)cc(=O)n1CC(=O)N1CCCC(c2ccc(C(=O)O)cc2)C1 (stereo not shown) [Compound I-0047], CC(C)(C)C(=O)Nc1cc(Cl)ccc1-c1cc(=O)n(Cc2cccc(C(=O)NC(CO)CO)c2)cn1 [Compound I-0486], COC(=O)c1cc(Cn2c(CCCC(F)(F)F)nc(-c3ccc(Cl)cc3)cc2=O)cs1 [Compound I-0313], CCCCCc1nc(-c2ccc(Cl)cc2)[nH]c(=O)c1Cc1cccc(C(=O)O)c1 [Compound I-0003], CC(=O)NC1CCN(C(=O)Cn2c(CCCC(F)(F)F)nc(-c3ccc(C(F)(F)F)cc3)cc2=O)CC1 [Compound I-0351], CC(C)(C)OC(=O)Cn1c(CCCC(F)(F)F)nc(-c2ccc(Cl)cc2C=O)cc1=O [Compound I-0296], CCCCCNc1nc(-c2ccc(C(F)(F)F)cc2)cc(=O)n1Cc1cccc(C(=O)NC(Cc2ccccc2)C(=O)O)c1 (stereo not shown) [Compound I-0014], O=C(Cn1c(CCCC(F)(F)F)nc(-c2ccc(Cl)cc2)cc1=O)NCCN(CCO)CCO [Compound I-0146], C[C@@H]1CN(C(=O)c2cccc(Cn3c(CCCC(F)(F)F)nc(-c4ccc(Cl)cc4)cc3=O)c2)C[C@H](C)O1 [Compound I-0166], O=C(NCCOCCO)c1cccc(Cn2c(CCCC(F)(F)F)nc(-c3ccc(Cl)cc3)cc2=O)c1 [Compound I-0162], CNC(=O)CNC(=O)c1cccc(Cn2c(CCCC(F)(F)F)nc(-c3ccc(Cl)cc3)cc2=O)c1 [Compound I-0182], COC(=O)Nc1cc(C#N)ccc1-c1cc(=O)n(CC(=O)N2CC(C)(O)C2)c(C)n1 [Compound I-0398], CCOCCc1nc(-c2ccc(Cl)cc2)cc(=O)n1CC(=O)NCC(C)(C)O [Compound I-0222], CCCCCc1nc(-c2ccc(Cl)cc2)cc(=O)n1CC(=O)N1CCCCC1C(=O)O (stereo not shown) [Compound I-0049], O=C(c1cccc(Cn2c(CCCC(F)(F)F)nc(-c3ccc(Cl)cc3)cc2=O)c1)N(CCO)Cc1ccccc1 [Compound I-0198], O=C(O)c1cccc(Cn2c(CCCC(F)(F)F)nc(-c3ccc(Cl)cc3)cc2=O)n1 [Compound I-0289], CCCCCc1nc(-c2ccc(Cl)cc2)cc(=O)n1CC(=O)N1CCOC(c2ccccc2)C1 (stereo not shown) [Compound I-0100]
